{"source": "patent US7250414B2", "about": "“Diphenylmethyl compounds useful as muscarinic receptor antagonists” (Theravance, Inc., priority 2004, dated 2007)", "key": {"[1]": {"test_system": "pilocarpine-evoked salivation", "test": "Inhalation guinea pig salivation assay", "format": "in vivo", "experimental": "Inhalation Guinea Pig Salivation Assay\nGuinea pigs (Charles River, Wilmington, Mass.) weighing 200-350 g were acclimated to the in-house guinea pig colony for at least 3 days following arrival. Test compound or vehicle were dosed via inhalation (IH) over a 10 minute time period in a pie shaped dosing chamber (R&S Molds, San Carlos, Calif.). Test solutions were dissolved in sterile water and delivered using a nebulizer filled with 5.0 mL of dosing solution. Guinea pigs were restrained in the inhalation chamber for 30 minutes. During this time, guinea pigs were restricted to an area of approximately 110 sq. cm. […] Upon completion of nebulization, guinea pigs were evaluated at 1.5, 6, 12, 24, 48, or 72 hrs after treatment.\nGuinea pigs were anesthetized one hour before testing with an intramuscular (IM) injection of a mixture of ketamine 43.75 mg/kg, xylazine 3.5 mg/kg, and acepromazine 1.05 mg/kg at an 0.88 mL/kg volume. […] Saliva was collected for 10 minutes, at which point the gauze pad was weighed and the difference in weight recorded to determine the amount of accumulated saliva (in mg). The mean amount of saliva collected for animals receiving the vehicle and each dose of test compound was calculated. […] Results were calculated using result means (n=3 or greater). Confidence intervals (95%) were calculated for each dose at each time point using two-way ANOVA. […]"}, "[2]": {"molecular_target": "T1, hM3 muscarinic receptor subtype (Homo sapiens, UniProt P20309)", "T1 construct": "expressed in transfected cells; crude membranes prepared in house", "T1 sequence (P20309 whole entry)": "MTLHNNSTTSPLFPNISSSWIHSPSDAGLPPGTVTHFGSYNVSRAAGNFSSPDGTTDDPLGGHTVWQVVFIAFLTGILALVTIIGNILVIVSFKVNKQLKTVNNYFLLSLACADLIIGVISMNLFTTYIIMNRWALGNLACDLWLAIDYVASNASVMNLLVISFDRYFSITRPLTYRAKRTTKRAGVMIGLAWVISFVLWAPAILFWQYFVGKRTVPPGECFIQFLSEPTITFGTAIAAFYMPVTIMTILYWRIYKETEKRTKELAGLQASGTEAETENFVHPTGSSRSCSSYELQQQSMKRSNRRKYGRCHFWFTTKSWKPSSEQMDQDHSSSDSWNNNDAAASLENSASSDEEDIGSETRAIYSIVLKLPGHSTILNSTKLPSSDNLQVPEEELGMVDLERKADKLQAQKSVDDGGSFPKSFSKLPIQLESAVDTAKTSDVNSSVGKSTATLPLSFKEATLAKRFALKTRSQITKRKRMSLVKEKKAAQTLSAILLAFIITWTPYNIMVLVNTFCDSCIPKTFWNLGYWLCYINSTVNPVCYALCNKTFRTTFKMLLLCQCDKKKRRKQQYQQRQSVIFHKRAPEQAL", "test": "Radioligand binding assay ([3H]-NMS displacement)", "settings": "CHO cell membranes, [3H]-NMS at 1 nM, Cheng-Prusoff; read-out: Ki value for the M3 muscarinic receptor subtype", "experimental": "A. Membrane Preparation from Cells Expressing hM1, hM2, hM3 and hM4 Muscarinic Receptor Subtypes\nCHO cell lines stably expressing cloned human hM1, hM2, hM3 and hM4 muscarinic receptor subtypes, respectively, were grown to near confluency in medium consisting of HAM's F-12 supplemented with 10% FBS and 250 μg/mL Geneticin. The cells were grown in a 5% CO2, 37° C. incubator and lifted with 2 mM EDTA in dPBS. Cells were collected by 5 minute centrifugation at 650×g, and cell pellets were either stored frozen at −80° C. or membranes were prepared immediately. For membrane preparation, cell pellets were suspended in lysis buffer and homogenized with a Polytron PT-2100 tissue disrupter (Kinematica AG; 20 seconds×2 bursts). […] The protein concentration of the membrane suspension was determined by the method described in Lowry, O. et al., […] 193:265 (1951). […]\nRadioligand binding assays were performed in 96-well microtiter plates in a total assay volume of 100 μL. […] Filter plates were rinsed three times with wash buffer (10 mM HEPES) to remove unbound radioactivity. […] The plates were then counted in a PerkinElmer Topcount liquid scintillation counter (PerkinElmer Inc., Wellesley, Mass.). Binding data were analyzed by nonlinear regression analysis with the GraphPad Prism Software package (GraphPad Software, Inc., San Diego, Calif.) using the one-site competition model. […]"}}}
{"smiles": "CNCCc1ccc(CCN2CC[C@@H](C(C(N)=O)(c3ccccc3)c3ccccc3)C2)cc1", "note": "[Example 2, 2-((S)-1-{2-[4-(2-Methylaminoethyl)phenyl]ethyl}pyrrolidin-3-yl)-2,2-diphenyl-acetamide]", "values": [{"measurement": "apparent lung selectivity index (ratio of anti-sialagogue ID50 to bronchoprotective ID50)", "setting": "[1]", "value": "greater than 15"}]}
{"smiles": "Cc1cnc(CNCCc2ccc(CCN3CC[C@@H](C(C(N)=O)(c4ccccc4)c4ccccc4)C3)cc2)cn1", "note": "[Example 16, 2-{(S)-1-[2-(4-{2-[(5-methylpyrazin-2-ylmethyl)amino]ethyl}phenyl)ethyl]pyrrolidin-3-yl}-2,2-diphenylacetamide]", "values": [{"measurement": "Ki", "setting": "[2]", "value": 110, "unit": "nM"}]}
